Measurements: patent US20250289813A1, “CDK INHIBITORS, PHARMACEUTICAL COMPOSITIONS, AND THERAPEUTIC APPLICATIONS” (ONQUALITY PHARMACEUTICALS CHINA LTD., priority 2022, published 2025)

Tests used:
[1] = biological target: CDK4/cyclin D1 (Homo sapiens (Human), UniProt P11802); test: CDK4 Caliper Mobility Shift assay; type: biochemical
How it was run: (§1)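 Caliper mobility-shift kinase assay with FAM-labeled peptide substrate. CDK4/cyclin D1 (15 nM) ran in 20 mM HEPES pH 7.5, 0.01% Triton X-100 at […] ATP; CDK6/cyclin D1 (7.5 nM) in 50 mM HEPES pH 7.5, 0.0015% BRIJ-35 at […] ATP. Compound was pre-incubated 10 min, reactions ran at 28 °C, and IC50 came from percent conversion inhibition.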

[2] = biological target: CDK6/cyclin D1 (Homo sapiens (Human), UniProt Q00534); test: CDK6 Caliper Mobility Shift assay; type: biochemical
How it was run: as §1

[3] = test system: MCF-7 human breast cancer cells; test: CELLTITER-GLO luminescent cell viability assay; type: cell-based; settings: MCF7, 192 h, MCF-7 cells, 8 days, read-out: EC50 (Effect on Cell Viability)
How it was run: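 MCF-7 cells grown in EMEM with 10% FBS and insulin, seeded at 3,000 cells/well and left to adhere overnight. Compound exposure lasted 8 days at 37 °C; viability was read by CellTiter-Glo luminescence.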

[4] = test system: COLO205 human colon cancer cells; test: CASPASE-GLO 3/7 apoptosis assay (protection against chemotherapy drug induced cytotoxicity); type: cell-based
Description: The CASPASE-GLO 3/7 apoptosis assay was used to evaluate the protective effect of a compound on the cytotoxicity induced by a chemotherapy drug. The apoptosis assay was carried out using COLO205 human colon cancer cells. The cells were grown at 37° C. in a 5% CO2 humidified incubator in PRIM1640 supplemented with 10% FBS and 0.01 mg/mL bovine insulin. The cells were seeded at 4,000 cells/well in a 96-well plate. After incubated overnight, the cells were pretreated with a compound at predetermined concentrations or a vehicle for 16 h, followed by addition of a chemotherapy drug. After incubated for another 48 h, the CASPASE-GLO 3/7 reagent (100 μL/well) was added. The cells were mixed on an orbital shaker for 10 min and incubated at room temperature for 2 h. The 96-well plate was read with an ENVISION reader.

[5] = test system: BALB/c mice; test: Irinotecan-induced diarrhea/constipation mouse model; type: in vivo; settings: Day 7
Description: A compound was evaluated in an irinotecan-induced diarrhea/constipation mouse model for its protective effect on the cytotoxicity induced by a chemotherapy drug. On day 0, BALB/c mice (20-25 g, 7-8 weeks of age) were randomly divided into 3 groups (vehicle, irinotecan, and compound treatment) with 10 mice in each group. In the vehicle group, the mice were administered orally with the same medium in the same amount as used in the treatment group for the compound and then injected with the same medium in the same amount as used in the irinotecan group. In the irinotecan group, the mice were administered orally with the same medium in the same amount as used in the treatment group for the compound and then injected with irinotecan (240 mg/kg). In the treatment group, the mice were administrated orally with the compound and then injected with irinotecan (240 mg/kg). The compound was formulated with a 0.5% CMC solution. […]
(§2) On Day 7, the diarrhea grade of each mouse was determined according to the method described in Kurita et al., Cancer Chemother. Pharmacol. 2000, 46, 211-20, the disclosure of which is incorporated herein by reference in its entirety. The diarrhea remission rates were calculated using the formula of Diarrhea remission rate (%)=(diarrhea grade in 5-FU group−diarrhea grade in treatment group)/diarrhea grade in 5-FU group×100%.

[6] = test system: BALB/c mice; test: 5-FU-induced diarrhea mouse model; type: in vivo; settings: day 7
Description: A compound was evaluated in a 5-FU-induced diarrhea mouse model for its protective effect on the cytotoxicity induced by the chemotherapy drug 5-FU. On day 0, BALB/c mice (20-25 g, 7-8 weeks of age) were randomly divided into 3 groups (vehicle, 5-FU, and compound treatment) with 10 mice in each group. In the vehicle group, the mice were administered orally with the same medium in the same amount as used in the treatment group for the compound and then injected with the same medium in the same amount as used in the 5-FU group. In the 5-FU group, the mice were administered orally with the same medium in the same amount as used in the treatment group for the compound and then injected with 5-FU (175 mg/kg). In the treatment group, the mice were administrated orally with the compound and then injected with 5-FU (175 mg/kg). The compound was formulated with a 0.5% CMC solution.
as §2, with “day” for “Day”, “Diarrhea” for “The diarrhea”, “group—diarrhea” for “group−diarrhea”

[7] = compound 2 μM, Irinotecan (20 μM)
[8] = compound 20 μM, Irinotecan (20 μM)
[9] = compound 50 μM, Irinotecan (20 μM)
[10] = 50 mg/kg oral, 8 h before and 4 h after 5-FU (175 mg/kg)
[11] = 100 mg/kg oral, 8 h before and 4 h after 5-FU (175 mg/kg)
[12] = 10 mg/kg oral, 4 h before and 8 h after irinotecan (240 mg/kg)

CDK6/cyclin D1, sequence (Q00534 whole entry): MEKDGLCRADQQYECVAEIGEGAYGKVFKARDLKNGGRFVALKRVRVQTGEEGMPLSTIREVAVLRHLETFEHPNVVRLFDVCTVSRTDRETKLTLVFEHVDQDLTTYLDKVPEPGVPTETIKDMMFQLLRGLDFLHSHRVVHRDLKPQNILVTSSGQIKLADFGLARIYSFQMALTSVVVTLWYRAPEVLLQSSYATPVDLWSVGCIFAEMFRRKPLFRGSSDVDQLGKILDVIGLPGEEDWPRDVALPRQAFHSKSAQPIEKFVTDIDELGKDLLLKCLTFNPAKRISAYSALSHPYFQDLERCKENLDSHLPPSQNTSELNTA
CDK6/cyclin D1, sequence (P24385 whole entry partner): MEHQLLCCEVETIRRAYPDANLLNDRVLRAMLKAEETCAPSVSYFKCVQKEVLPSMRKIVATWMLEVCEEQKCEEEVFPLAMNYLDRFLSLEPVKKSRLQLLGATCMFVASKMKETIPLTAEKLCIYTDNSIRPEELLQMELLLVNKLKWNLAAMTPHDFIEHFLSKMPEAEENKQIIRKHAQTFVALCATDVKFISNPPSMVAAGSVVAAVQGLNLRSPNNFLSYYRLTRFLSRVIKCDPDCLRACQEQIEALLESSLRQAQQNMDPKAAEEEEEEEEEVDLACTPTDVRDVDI
CDK4/cyclin D1, sequence (P11802 whole entry): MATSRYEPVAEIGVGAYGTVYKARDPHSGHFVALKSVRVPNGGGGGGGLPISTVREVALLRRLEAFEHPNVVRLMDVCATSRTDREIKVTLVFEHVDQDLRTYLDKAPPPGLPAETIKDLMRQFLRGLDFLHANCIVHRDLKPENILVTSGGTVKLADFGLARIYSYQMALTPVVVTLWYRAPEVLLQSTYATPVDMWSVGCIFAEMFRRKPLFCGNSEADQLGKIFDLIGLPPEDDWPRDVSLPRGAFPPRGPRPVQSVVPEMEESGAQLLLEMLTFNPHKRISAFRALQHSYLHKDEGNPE
CDK4/cyclin D1, sequence (P24385 whole entry partner): as the sequence (P24385 whole entry partner) above

Structure (SMILES): CC(=O)c1c(C)c2cnc(Nc3ccc(N4CCN(S(=O)(=O)NC(=O)OCCO)CC4)cn3)nc2n(C2CCCC2)c1=O [Compound A1, 2-hydroxyethyl ((4-(6-((6-acetyl-8-cyclopentyl-5-methyl-7-oxo-7,8-dihydropyrido[2,3-d]pyrimidin-2-yl)amino)pyridin-3-yl)piperazin-1-yl)sulfonyl)carbamate]
- IC50 [1]: ≤ 200 nM
- IC50 [2]: ≤ 200 nM
- EC50 [3]: > 10000 nM
- RPR (relative protection rate) ([4]; compound 0.1 μM, 5-Fu (10 μM)): 13%
- RPR (relative protection rate) ([4]; compound 1 μM, 5-Fu (10 μM)): 82%
- RPR (relative protection rate) ([4]; compound 5 μM, 5-Fu (10 μM)): 90%
- RPR (relative protection rate) ([4]; compound 10 μM, 5-Fu (10 μM)): 68%
- RPR (relative protection rate) ([4]; compound 100 μM, 5-Fu (10 μM)): 11%
- Remission Rate (diarrhea remission rate) ([5]; 5 mg/kg oral, 4 h before and 8 h after irinotecan (240 mg/kg)): 50%
- Remission Rate (diarrhea remission rate) ([5]; 25 mg/kg oral, 4 h before and 8 h after irinotecan (240 mg/kg)): 70%
- Remission Rate (diarrhea remission rate) ([5]; 100 mg/kg oral, 4 h before and 8 h after irinotecan (240 mg/kg)): 20%

Structure (SMILES): CC(=O)c1c(C)c2cnc(Nc3ccc(N4CCN(S(=O)(=O)NC(=O)[C@H](C)N)CC4)cn3)nc2n(C2CCCC2)c1=O [Compound A6, (S)—N-((4-(6-((6-acetyl-8-cyclopentyl-5-methyl-7-oxo-7,8-dihydropyrido[2,3-d]-pyrimidin-2-yl)amino)pyridin-3-yl)piperazin-1-yl)sulfonyl)-2-aminopropanamide]
- IC50 [1]: ≤ 200 nM
- IC50 [2]: ≤ 200 nM
- EC50 [3]: ≤ 1000 nM
- RPR (relative protection rate) ([4]; compound 0.01 μM, Irinotecan (20 μM)): 20%
- RPR (relative protection rate) ([4]; compound 0.2 μM, Irinotecan (20 μM)): 36%
- RPR (relative protection rate) [4, 7]: 89%
- RPR (relative protection rate) [4, 8]: 73%
- RPR (relative protection rate) [4, 9]: 57%
- Remission Rate (diarrhea remission rate) ([6]; 5 mg/kg oral, 8 h before and 4 h after 5-FU (175 mg/kg)): 20%
- Remission Rate (diarrhea remission rate) [6, 10]: 66%
- Remission Rate (diarrhea remission rate) [6, 11]: 33%

Structure (SMILES): CC(=O)NCCOC(=O)NS(=O)(=O)N1CCN(c2ccc(Nc3ncc4c(C)c(C(C)=O)c(=O)n(C5CCCC5)c4n3)nc2)CC1 [Compound A15, 2-Acetamidoethyl ((4-(6-((6-acetyl-8-cyclopentyl-5-methyl-7-oxo-7,8-dihydropyrido[2,3-d]pyrimidin-2-yl)amino)pyridin-3-yl)piperazin-1-yl)sulfonyl)carbamate]
- IC50 [1]: 200 to 500 nM
- IC50 [2]: ≤ 200 nM
- EC50 [3]: 1000 to 10000 nM
- RPR (relative protection rate) ([4]; compound 0.1 μM, 5-Fu (10 μM)): 28%
- RPR (relative protection rate) ([4]; compound 1 μM, 5-Fu (10 μM)): 84%
- RPR (relative protection rate) ([4]; compound 10 μM, 5-Fu (10 μM)): 71%
- Remission Rate (diarrhea remission rate) [5, 12]: 40%
- Remission Rate (diarrhea remission rate) ([5]; 50 mg/kg oral, 4 h before and 8 h after irinotecan (240 mg/kg)): 60%

Structure (SMILES): CC(=O)c1c(C)c2cnc(Nc3ccc(N4CCN(S(=O)(=O)NC(=O)OC5CCOCC5)CC4)cn3)nc2n(C2CCCC2)c1=O [Compound A22, Tetrahydro-2H-pyran-4-yl ((4-(6-((6-acetyl-8-cyclopentyl-5-methyl-7-oxo-7,8-dihydropyrido[2,3-d]pyrimidin-2-yl)amino)pyridin-3-yl)piperazin-1-yl)sulfonyl)carbamate]
- IC50 [1]: 200 to 500 nM
- IC50 [2]: ≤ 200 nM
- EC50 [3]: > 10000 nM
- RPR (relative protection rate) ([4]; compound 0.5 μM, 5-Fu (10 μM)): 26%
- RPR (relative protection rate) ([4]; compound 25 μM, 5-Fu (10 μM)): 64%
- Remission Rate (diarrhea remission rate) [6, 10]: 55%
- Remission Rate (diarrhea remission rate) [6, 11]: 36%
- Remission Rate (diarrhea remission rate) ([5]; 5 mg/kg oral, 6 h before and 6 h after irinotecan (240 mg/kg)): 30%
- Remission Rate (diarrhea remission rate) ([5]; 25 mg/kg oral, 6 h before and 6 h after irinotecan (240 mg/kg)): 50%

Structure (SMILES): CCC(=O)NS(=O)(=O)N1CCN(c2ccc(Nc3ncc4c(C)c(C(C)=O)c(=O)n(C5CCCC5)c4n3)nc2)CC1 [Compound A35, N-((4-(6-((6-Acetyl-8-cyclopentyl-5-methyl-7-oxo-7,8-dihydropyrido[2,3-d]-pyrimidin-2-yl)amino)pyridin-3-yl)piperazin-1-yl)sulfonyl)propionamide]
- IC50 [1]: ≤ 200 nM
- IC50 [2]: ≤ 200 nM
- EC50 [3]: 1000 to 10000 nM
- RPR (relative protection rate) [4, 7]: 83%
- RPR (relative protection rate) [4, 8]: 81%
- Remission Rate (diarrhea remission rate) ([6]; 5 mg/kg oral, 12 h before 5-FU (175 mg/kg)): 40%
- Remission Rate (diarrhea remission rate) ([6]; 25 mg/kg oral, 12 h before 5-FU (175 mg/kg)): 50%
- Remission Rate (diarrhea remission rate) ([5]; 10 mg/kg oral, 6 h before and 6 h after irinotecan (240 mg/kg)): 50%
- Remission Rate (diarrhea remission rate) ([5]; 100 mg/kg oral, 6 h before and 6 h after irinotecan (240 mg/kg)): 70%

Structure (SMILES): CC(=O)c1c(C)c2cnc(Nc3ccc(N4CCN(S(=O)(=O)OCOC(=O)C(C)(C)C)CC4)cn3)nc2n(C2CCCC2)c1=O [Compound B1, (((4-(6-((6-acetyl-8-cyclopentyl-5-methyl-7-oxo-7,8-dihydropyrido[2,3-d]-pyrimidin-2-yl)amino)pyridin-3-yl)piperazin-1-yl)sulfonyl)oxy)methyl pivalate]
- IC50 [1]: ≤ 200 nM
- IC50 [2]: ≤ 200 nM
- EC50 [3]: ≤ 1000 nM
- RPR (relative protection rate) ([4]; compound 5 μM, Irinotecan (20 μM)): 90%
- RPR (relative protection rate) [4, 9]: 65%
- RPR (relative protection rate) ([4]; compound 100 μM, Irinotecan (20 μM)): 32%
- Remission Rate (diarrhea remission rate) ([6]; 10 mg/kg oral, 8 h before and 4 h after 5-FU (175 mg/kg)): 38%
- Remission Rate (diarrhea remission rate) [5, 12]: 60%

Structure (SMILES): CCS(=O)(=O)N1CCN(c2ccc(Nc3ncc4c(C)c(C(C)=O)c(=O)n(C5CCCC5)c4n3)nc2)CC1 [Compound C2, 6-Acetyl-8-cyclopentyl-2-((5-(4-(ethylsulfonyl)piperazin-1-yl)pyridin-2-yl)-amino)-5-methylpyrido[2,3-d]pyrimidin-7(81)-one]
- IC50 [1]: ≤ 200 nM
- IC50 [2]: ≤ 200 nM
- RPR (relative protection rate) ([4]; compound 0.2 μM, 5-Fu (10 μM)): 59%
- RPR (relative protection rate) ([4]; compound 2 μM, 5-Fu (10 μM)): 79%
- RPR (relative protection rate) ([4]; compound 20 μM, 5-Fu (10 μM)): 87%
- Remission Rate (diarrhea remission rate) ([6]; 75 mg/kg oral, 8 h before and 4 h after 5-FU (175 mg/kg)): 50%
- Remission Rate (diarrhea remission rate) ([5]; 75 mg/kg oral, 4 h before and 8 h after irinotecan (240 mg/kg)): 30%
